# Legend:
# Settings in all cases: Compound concentration 1000.0 nM
# [1] = tested on: Tyrosine-protein kinase ABL1 (Homo sapiens), P00519 [F317I]
# [2] = target: Tyrosine-protein kinase receptor TYRO3 (Homo sapiens) (UniProt Q06418)
# [3] = target: Non-receptor tyrosine-protein kinase TNK1 (Homo sapiens) (UniProt Q13470)
# [4] = target: Ephrin type-B receptor 4 (Homo sapiens) (UniProt P54760)
# [5] = target: BDNF/NT-3 growth factors receptor (Homo sapiens) (UniProt Q16620)
# [6] = target: Dual specificity tyrosine-phosphorylation-regulated kinase 2 (Homo sapiens) (UniProt Q92630)
# [7] = target: Serine/threonine-protein kinase OSR1 (Homo sapiens) (UniProt O95747)
# [8] = target: Mitogen-activated protein kinase 4 (Homo sapiens) (UniProt P31152)
# [9] = target: TGF-beta receptor type-1 (Homo sapiens) (UniProt P36897)
# [10] = target: Ephrin type-B receptor 1 (Homo sapiens) (UniProt P54762)
# [11] = target: MAP kinase-interacting serine/threonine-protein kinase 1 (Homo sapiens) (UniProt Q9BUB5)
# [12] = target: Serine/threonine-protein kinase PAK 5 (Homo sapiens) (UniProt Q9P286)
# [13] = target: Cyclin-dependent kinase 2 homolog (Plasmodium falciparum (isolate 3D7)) (UniProt P61075)
# [14] = target: Protein-tyrosine kinase 6 (Homo sapiens) (UniProt Q13882)
# [15] = tested on: Fibroblast growth factor receptor 3 (Homo sapiens), P22607 [G697C]
# [16] = target: Tyrosine-protein kinase Tec (Homo sapiens) (UniProt P42680)
# [17] = target: Calcium/calmodulin-dependent protein kinase type 1G (Homo sapiens) (UniProt Q96NX5)
# [18] = target: Ephrin type-A receptor 7 (Homo sapiens) (UniProt Q15375)
# [19] = target: Tyrosine-protein kinase Yes (Homo sapiens) (UniProt P07947)
# [20] = target: Serine/threonine-protein kinase ULK3 (Homo sapiens) (UniProt Q6PHR2)
# [21] = target: Serine/threonine-protein kinase 32B (Homo sapiens) (UniProt Q9NY57)
# [22] = target: Tyrosine-protein kinase ABL2 (Homo sapiens) (UniProt P42684)
# [23] = target: Rho-associated protein kinase 2 (Homo sapiens) (UniProt O75116)
# [24] = target: Protein kinase C eta type (Homo sapiens) (UniProt P24723)
# [25] = target: Aurora kinase B (Homo sapiens) (UniProt Q96GD4)
# [26] = target: Mitogen-activated protein kinase 6 (Homo sapiens) (UniProt Q16659)
# [27] = target: Death-associated protein kinase 2 (Homo sapiens) (UniProt Q9UIK4)
# [28] = target: Tyrosine-protein kinase JAK1 (Homo sapiens) (UniProt P23458)
# [29] = target: Tyrosine-protein kinase FRK (Homo sapiens) (UniProt P42685)
# [30] = target: Serine/threonine-protein kinase Nek10 (Homo sapiens) (UniProt Q6ZWH5)
# [31] = target: Atypical kinase COQ8B, mitochondrial (Homo sapiens) (UniProt Q96D53)
# [32] = tested on: Mast/stem cell growth factor receptor Kit (Homo sapiens), P10721 [L576P]
# [33] = target: Tyrosine-protein kinase JAK1 (Homo sapiens) (UniProt P23458); remark: listed apart in the source
# [34] = tested on: Mast/stem cell growth factor receptor Kit (Homo sapiens), P10721 [D816H]
# [35] = target: Calcium/calmodulin-dependent protein kinase kinase 2 (Homo sapiens) (UniProt Q96RR4)
# [36] = target: Mitogen-activated protein kinase 8 (Homo sapiens) (UniProt P45983)
# [37] = target: Mitogen-activated protein kinase kinase kinase 2 (Homo sapiens) (UniProt Q9Y2U5)
# [38] = target: Misshapen-like kinase 1 (Homo sapiens) (UniProt Q8N4C8)
# [39] = target: Ribosomal protein S6 kinase alpha-2 (Homo sapiens) (UniProt Q15349)
# [40] = target: Serine/threonine-protein kinase/endoribonuclease IRE1 (Homo sapiens) (UniProt O75460)
# [41] = target: STE20/SPS1-related proline-alanine-rich protein kinase (Homo sapiens) (UniProt Q9UEW8)
# [42] = target: Dual specificity mitogen-activated protein kinase kinase 1 (Homo sapiens) (UniProt Q02750)
# [43] = target: Myosin light chain kinase 2, skeletal/cardiac muscle (Homo sapiens) (UniProt Q9H1R3)
# [44] = target: Discoidin domain-containing receptor 2 (Homo sapiens) (UniProt Q16832)
# [45] = tested on: eIF-2-alpha kinase GCN2 (Homo sapiens), Q9P2K8 [S808G]
# Tyrosine-protein kinase JAK1 (Homo sapiens), sequence (P23458 whole entry): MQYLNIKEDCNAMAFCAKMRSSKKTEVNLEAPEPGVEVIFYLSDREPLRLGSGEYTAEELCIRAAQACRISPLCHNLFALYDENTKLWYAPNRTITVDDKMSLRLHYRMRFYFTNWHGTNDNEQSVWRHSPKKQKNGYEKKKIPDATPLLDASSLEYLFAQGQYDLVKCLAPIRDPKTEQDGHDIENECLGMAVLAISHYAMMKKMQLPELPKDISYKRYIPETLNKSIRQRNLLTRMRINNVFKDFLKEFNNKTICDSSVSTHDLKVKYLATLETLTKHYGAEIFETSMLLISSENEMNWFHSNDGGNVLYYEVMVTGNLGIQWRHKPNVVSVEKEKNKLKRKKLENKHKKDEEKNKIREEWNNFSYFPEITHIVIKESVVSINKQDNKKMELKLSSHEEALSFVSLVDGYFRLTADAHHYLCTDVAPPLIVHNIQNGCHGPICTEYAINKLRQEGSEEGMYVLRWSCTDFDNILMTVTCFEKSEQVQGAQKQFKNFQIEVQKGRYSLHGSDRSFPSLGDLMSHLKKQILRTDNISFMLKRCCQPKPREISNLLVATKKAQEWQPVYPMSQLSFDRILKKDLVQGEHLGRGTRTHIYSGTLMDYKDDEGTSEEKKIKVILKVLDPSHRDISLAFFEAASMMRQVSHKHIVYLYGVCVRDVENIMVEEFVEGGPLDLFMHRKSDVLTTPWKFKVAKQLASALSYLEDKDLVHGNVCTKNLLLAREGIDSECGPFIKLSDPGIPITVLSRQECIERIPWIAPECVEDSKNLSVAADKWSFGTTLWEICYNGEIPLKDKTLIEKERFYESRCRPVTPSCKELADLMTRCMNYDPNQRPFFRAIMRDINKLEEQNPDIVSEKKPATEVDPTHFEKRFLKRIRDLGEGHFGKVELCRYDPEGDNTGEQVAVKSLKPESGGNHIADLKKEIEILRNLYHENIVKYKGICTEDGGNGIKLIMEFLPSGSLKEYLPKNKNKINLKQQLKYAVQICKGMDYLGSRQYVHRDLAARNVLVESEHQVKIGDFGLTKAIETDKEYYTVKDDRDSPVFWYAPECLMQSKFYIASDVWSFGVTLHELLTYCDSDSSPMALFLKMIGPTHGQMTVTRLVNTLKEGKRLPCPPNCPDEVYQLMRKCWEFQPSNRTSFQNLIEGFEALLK
# Tyrosine-protein kinase FRK (Homo sapiens), sequence (P42685 whole entry): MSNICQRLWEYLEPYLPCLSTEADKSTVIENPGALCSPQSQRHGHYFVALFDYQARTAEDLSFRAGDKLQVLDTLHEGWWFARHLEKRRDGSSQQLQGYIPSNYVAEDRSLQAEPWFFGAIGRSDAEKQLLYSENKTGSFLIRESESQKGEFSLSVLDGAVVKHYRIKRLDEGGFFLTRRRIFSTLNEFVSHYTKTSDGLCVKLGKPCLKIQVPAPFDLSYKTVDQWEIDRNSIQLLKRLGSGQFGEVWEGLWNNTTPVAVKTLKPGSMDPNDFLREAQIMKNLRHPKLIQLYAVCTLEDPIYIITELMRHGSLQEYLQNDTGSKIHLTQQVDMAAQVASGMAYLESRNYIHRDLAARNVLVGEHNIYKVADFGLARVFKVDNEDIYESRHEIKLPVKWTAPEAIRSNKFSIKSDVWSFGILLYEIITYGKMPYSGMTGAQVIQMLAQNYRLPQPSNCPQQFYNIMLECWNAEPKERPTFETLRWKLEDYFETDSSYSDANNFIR
# Calcium/calmodulin-dependent protein kinase type 1G (Homo sapiens), sequence (Q96NX5 whole entry): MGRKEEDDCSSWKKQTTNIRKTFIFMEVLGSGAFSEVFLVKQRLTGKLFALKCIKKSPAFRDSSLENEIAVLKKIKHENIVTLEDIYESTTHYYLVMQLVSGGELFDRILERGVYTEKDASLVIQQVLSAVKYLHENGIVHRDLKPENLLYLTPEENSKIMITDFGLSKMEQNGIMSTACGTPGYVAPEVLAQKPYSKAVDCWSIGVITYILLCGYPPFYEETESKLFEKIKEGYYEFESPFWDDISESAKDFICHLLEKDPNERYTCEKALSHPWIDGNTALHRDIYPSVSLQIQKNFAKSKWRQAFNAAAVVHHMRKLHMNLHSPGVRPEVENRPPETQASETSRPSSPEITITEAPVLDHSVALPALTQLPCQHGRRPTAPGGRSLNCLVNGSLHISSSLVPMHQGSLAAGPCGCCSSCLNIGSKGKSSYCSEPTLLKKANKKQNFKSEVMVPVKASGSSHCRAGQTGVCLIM
# Aurora kinase B (Homo sapiens), sequence (Q96GD4 whole entry): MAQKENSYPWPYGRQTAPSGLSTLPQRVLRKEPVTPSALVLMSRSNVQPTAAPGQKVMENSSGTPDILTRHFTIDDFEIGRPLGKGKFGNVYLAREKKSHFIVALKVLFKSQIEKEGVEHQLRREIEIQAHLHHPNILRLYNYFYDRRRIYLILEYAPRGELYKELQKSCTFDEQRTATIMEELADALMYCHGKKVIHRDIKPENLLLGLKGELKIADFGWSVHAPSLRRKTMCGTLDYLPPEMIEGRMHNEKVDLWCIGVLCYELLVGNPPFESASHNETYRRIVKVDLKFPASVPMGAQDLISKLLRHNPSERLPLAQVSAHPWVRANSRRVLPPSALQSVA
# TGF-beta receptor type-1 (Homo sapiens), sequence (P36897 whole entry): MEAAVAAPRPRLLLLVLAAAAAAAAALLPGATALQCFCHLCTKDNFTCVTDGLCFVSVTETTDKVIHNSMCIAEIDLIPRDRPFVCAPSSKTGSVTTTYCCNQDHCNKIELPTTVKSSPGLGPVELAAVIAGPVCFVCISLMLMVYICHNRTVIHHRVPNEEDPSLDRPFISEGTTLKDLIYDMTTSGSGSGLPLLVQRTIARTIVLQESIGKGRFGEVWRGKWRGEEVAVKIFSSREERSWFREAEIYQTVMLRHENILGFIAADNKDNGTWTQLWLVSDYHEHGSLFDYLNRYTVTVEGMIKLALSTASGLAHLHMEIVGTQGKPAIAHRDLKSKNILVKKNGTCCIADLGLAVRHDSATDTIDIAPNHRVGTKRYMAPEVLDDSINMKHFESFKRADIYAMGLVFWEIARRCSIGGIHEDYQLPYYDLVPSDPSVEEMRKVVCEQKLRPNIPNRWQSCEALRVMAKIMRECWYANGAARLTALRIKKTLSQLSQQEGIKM
# Serine/threonine-protein kinase Nek10 (Homo sapiens), sequence (Q6ZWH5 whole entry): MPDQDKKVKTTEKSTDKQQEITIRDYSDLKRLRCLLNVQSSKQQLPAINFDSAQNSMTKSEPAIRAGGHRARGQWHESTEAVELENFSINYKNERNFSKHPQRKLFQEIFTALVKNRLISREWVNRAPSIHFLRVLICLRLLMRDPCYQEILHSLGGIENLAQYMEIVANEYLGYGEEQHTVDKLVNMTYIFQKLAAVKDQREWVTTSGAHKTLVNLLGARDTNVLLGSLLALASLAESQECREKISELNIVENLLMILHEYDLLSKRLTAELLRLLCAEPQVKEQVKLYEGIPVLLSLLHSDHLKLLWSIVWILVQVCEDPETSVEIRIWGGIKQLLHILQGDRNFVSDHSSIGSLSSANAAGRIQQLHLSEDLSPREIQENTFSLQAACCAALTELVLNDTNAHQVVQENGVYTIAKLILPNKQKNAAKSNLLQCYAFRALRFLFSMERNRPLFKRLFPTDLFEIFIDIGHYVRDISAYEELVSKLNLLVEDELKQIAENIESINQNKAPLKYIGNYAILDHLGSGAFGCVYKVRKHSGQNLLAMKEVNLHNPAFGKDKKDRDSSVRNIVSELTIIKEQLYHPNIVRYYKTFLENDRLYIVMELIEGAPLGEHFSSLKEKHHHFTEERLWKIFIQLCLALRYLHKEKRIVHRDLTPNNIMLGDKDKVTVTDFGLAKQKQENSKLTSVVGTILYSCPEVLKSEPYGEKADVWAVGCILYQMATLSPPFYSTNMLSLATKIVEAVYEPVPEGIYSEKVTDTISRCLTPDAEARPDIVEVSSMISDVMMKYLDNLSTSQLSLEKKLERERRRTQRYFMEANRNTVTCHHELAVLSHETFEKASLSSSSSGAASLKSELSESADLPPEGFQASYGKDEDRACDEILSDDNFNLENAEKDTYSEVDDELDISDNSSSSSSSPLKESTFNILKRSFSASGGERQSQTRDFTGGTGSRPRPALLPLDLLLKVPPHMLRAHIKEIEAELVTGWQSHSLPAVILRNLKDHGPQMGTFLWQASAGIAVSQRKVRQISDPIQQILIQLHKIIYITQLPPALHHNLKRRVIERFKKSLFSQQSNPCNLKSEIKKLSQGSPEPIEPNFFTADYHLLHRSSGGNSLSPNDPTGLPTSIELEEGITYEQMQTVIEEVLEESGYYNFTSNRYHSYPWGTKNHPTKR
# Mitogen-activated protein kinase kinase kinase 2 (Homo sapiens), sequence (Q9Y2U5 whole entry): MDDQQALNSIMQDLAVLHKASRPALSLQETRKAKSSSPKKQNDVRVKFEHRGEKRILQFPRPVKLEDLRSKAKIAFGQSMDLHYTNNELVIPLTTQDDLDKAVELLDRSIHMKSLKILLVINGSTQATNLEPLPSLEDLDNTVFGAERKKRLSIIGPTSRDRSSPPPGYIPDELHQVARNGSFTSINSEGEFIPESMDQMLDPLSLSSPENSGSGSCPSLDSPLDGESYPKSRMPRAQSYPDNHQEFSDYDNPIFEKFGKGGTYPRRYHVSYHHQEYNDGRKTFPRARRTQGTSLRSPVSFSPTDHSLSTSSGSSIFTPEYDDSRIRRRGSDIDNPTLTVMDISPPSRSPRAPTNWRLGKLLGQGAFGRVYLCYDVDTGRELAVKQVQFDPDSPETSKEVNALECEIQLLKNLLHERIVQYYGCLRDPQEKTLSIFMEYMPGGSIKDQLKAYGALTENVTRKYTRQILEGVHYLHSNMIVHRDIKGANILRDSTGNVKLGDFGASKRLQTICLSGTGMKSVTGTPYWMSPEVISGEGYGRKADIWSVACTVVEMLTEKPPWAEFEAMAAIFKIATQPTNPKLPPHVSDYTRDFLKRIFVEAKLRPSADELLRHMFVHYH
smiles,measurement,setting,value
c1ccc(N2CCN(Cc3nc4ccccc4[nH]3)CC2)nc1 [ABT-724],residual activity,[1],100%
same,residual activity,[2],93%
same,residual activity,[3],59%
same,residual activity,[4],100%
same,residual activity,[5],100%
same,residual activity,[6],100%
same,residual activity,[7],100%
same,residual activity,[8],100%
same,residual activity,[9],97%
same,residual activity,[10],100%
same,residual activity,[11],91%
same,residual activity,[12],100%
same,residual activity,[13],100%
same,residual activity,[14],100%
same,residual activity,[15],100%
same,residual activity,[16],100%
same,residual activity,[17],100%
same,residual activity,[18],100%
same,residual activity,[19],100%
same,residual activity,[20],100%
same,residual activity,[21],100%
same,residual activity,[22],100%
same,residual activity,[23],100%
same,residual activity,[24],89%
same,residual activity,[25],18%
same,residual activity,[26],100%
same,residual activity,[27],86%
same,residual activity,[28],91%
same,residual activity,[29],100%
same,residual activity,[30],100%
same,residual activity,[31],100%
same,residual activity,[32],100%
same,residual activity,[33],76%
same,residual activity,[34],100%
same,residual activity,[35],91%
same,residual activity,[36],100%
same,residual activity,[37],100%
same,residual activity,[38],100%
same,residual activity,[39],99%
same,residual activity,[40],100%
same,residual activity,[41],100%
same,residual activity,[42],100%
same,residual activity,[43],91%
same,residual activity,[44],100%
same,residual activity,[45],65%
CSc1cccnc1N1CCN(Cc2nc3ccccc3[nH]2)CC1 [A-769],residual activity,[1],100%
same,residual activity,[2],100%
same,residual activity,[3],84%
same,residual activity,[4],100%
same,residual activity,[5],100%
same,residual activity,[6],81%
same,residual activity,[7],78%
same,residual activity,[8],100%
same,residual activity,[9],100%
same,residual activity,[10],99%
same,residual activity,[11],98%
same,residual activity,[12],97%
same,residual activity,[13],92%
same,residual activity,[14],88%
same,residual activity,[15],100%
same,residual activity,[16],90%
same,residual activity,[17],100%
same,residual activity,[18],93%
same,residual activity,[19],100%
same,residual activity,[20],81%
same,residual activity,[21],100%
same,residual activity,[22],98%
same,residual activity,[23],74%
same,residual activity,[24],100%
same,residual activity,[25],67%
same,residual activity,[26],100%
same,residual activity,[27],100%
same,residual activity,[28],100%
same,residual activity,[29],92%
same,residual activity,[30],78%
same,residual activity,[31],100%
same,residual activity,[32],92%
same,residual activity,[33],80%
same,residual activity,[34],100%
same,residual activity,[35],100%
same,residual activity,[36],77%
same,residual activity,[37],82%
same,residual activity,[38],89%
same,residual activity,[39],100%
same,residual activity,[40],70%
same,residual activity,[41],100%
same,residual activity,[42],79%
same,residual activity,[43],100%
same,residual activity,[44],89%
same,residual activity,[45],100%

# Reference: ChEMBL document CHEMBL4507260 (2021)
